Assay results taken from US12317913B2, “Dietary butyrate” (SOCIETE DES PRODUITS NESTLE S.A., priority 2019, dated 2025).

How the values were obtained:
Human primary myoblasts = test: Muscle stem cell commitment (MyoD+ cells); type: cell-based; details: donors 8 and 4; 96 hours culture; FIG. 3
Protocol: Human primary myoblasts from two different donors (donor 8 & donor 4) were seeded in 384 well plates at a density of 1'000 cells per well in skeletal muscle growth medium (SKM-M, AMSbio). For treatment, compounds were directly added to the myoblast cultures 16 hours after initial plating. All cultures were then grown for 96 hours. Cells were stained for Pax7 and MyoD expression using antibodies directed against Pax7 and MyoD and counterstained with Hoechst 33342 to visualize cell nuclei. […] Image acquisition was performed using the ImageXpress (Molecular Devices) platform. Custom module analysis based on Multi-Wavelength Cell Scoring of the MetaXpress software was used for quantification. For each condition, the total number of cells was determined to evaluate compound toxicity, and the number of MyoD+ cells was normalized to the total cell number in order to evaluate the proportion of this population. *, **, ***, **** indicates difference from the control (DMSO 1%), One-way ANOVA, with p<0.05, p<0.01, p<0.001, p<0.0001, respectively. Data are presented as Mean +/− SEM

[1] = test system: rabbit gastric lipase (RGL) followed by porcine pancreatic lipase (PPL); test: Sequential in vitro digestion, simulated gastric fluid (SGF) then simulated intestinal fluid (SIF); type: in vitro ADME
Source text: (§1) An emulsion was then created using an ultrasonic probe homogeniser.

[2] = target: T1, porcine pancreatic lipase (PPL) (Sus scrofa, UniProt P00591); test: In vitro digestion in simulated intestinal fluid (SIF), pH-stat; type: in vitro ADME; details: SIF alone; emulsion with 200 mg fat; pH 6.8, 37° C.
T1 construct: by porcine pancreatic lipase (from pancreatin); from tissue; host or cells: pancreatin (pancreatic extract)
T1 sequence (P00591 1-450): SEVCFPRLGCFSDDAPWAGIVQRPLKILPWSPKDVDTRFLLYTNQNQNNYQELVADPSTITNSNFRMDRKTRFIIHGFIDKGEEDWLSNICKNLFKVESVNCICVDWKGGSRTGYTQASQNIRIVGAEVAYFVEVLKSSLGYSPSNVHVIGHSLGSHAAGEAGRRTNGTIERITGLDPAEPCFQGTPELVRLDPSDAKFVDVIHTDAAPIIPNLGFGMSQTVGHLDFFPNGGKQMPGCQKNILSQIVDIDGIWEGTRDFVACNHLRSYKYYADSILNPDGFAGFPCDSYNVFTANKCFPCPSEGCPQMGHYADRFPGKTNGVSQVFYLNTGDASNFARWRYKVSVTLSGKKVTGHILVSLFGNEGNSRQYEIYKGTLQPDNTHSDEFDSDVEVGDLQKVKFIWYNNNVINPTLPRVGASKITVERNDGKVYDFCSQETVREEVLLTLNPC
T1 sequence (P02703 23-112 partner): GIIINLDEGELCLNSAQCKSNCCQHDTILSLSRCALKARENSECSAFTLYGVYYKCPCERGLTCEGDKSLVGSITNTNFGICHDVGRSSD
Source text: as §1

Row | SMILES | Myogenic commitment (MyoD+ cells normalized to total cell number) (Human primary myoblasts) | Initial lipolysis rate in SIF ([1]; SGF-SIF sequential digestion, measured in SIF compartment) [µmol/min] | Hydrolysis in the stomach (gastric lipolysis), in words ([1]; gastric compartment, inferred from SGF-SIF vs SIF) | Lipolysis by gastric lipase ([1]; indicated by decreased total fatty acid release in SIF after RGL in SGF) [%] | Initial rate of lipolysis [2] [µmol/min]
1 | CCCC(=O)[O-].[Na+] [sodium butyrate] | promotes muscle stem cell differention |  |  |  | 
2 | CCCC(=O)OCC(COC(=O)CCC)OC(=O)CCC [tributyrin] |  | 44.1 ± 8.8 | extensive hydrolysis in the stomach | −60 | 223 ± 59
